From PubChem BioAssay (NCI)
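Five compound concentrations were applied to cells in 96-well plates for 48 hours; endpoints were derived by simple linear interpolation of the resulting dose-response curve. Definition used: TGI = concentration required for complete inhibition of growth.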

How the values were obtained:
Experiment in all cases: NCI tumour cell line growth inhibition, 48 h
SNB-75 CNS = test system: SNB-75 CNS
MDA-MB-231 breast = test system: MDA-MB-231 breast
HL-60(TB) leukemia = test system: HL-60(TB) leukemia
P388/ADR leukemia = test system: P388/ADR leukemia
SNB-19 CNS = test system: SNB-19 CNS
SW-620 colon = test system: SW-620 colon
HOP-62 NSCLC = test system: HOP-62 NSCLC
MOLT-4 leukemia = test system: MOLT-4 leukemia
DLD-1 colon = test system: DLD-1 colon
IGROV1 ovarian = test system: IGROV1 ovarian
NCI-H460 lung = test system: NCI-H460 lung
EKVX NSCLC = test system: EKVX NSCLC
HCT-15 colon = test system: HCT-15 colon
OVCAR-5 ovarian = test system: OVCAR-5 ovarian
SF-295 CNS = test system: SF-295 CNS
SF-539 CNS = test system: SF-539 CNS
SK-MEL-28 melanoma = test system: SK-MEL-28 melanoma
U251 CNS = test system: U251 CNS
SR leukemia = test system: SR leukemia
786-0 renal = test system: 786-0 renal
RPMI-8226 leukemia = test system: RPMI-8226 leukemia
UACC-62 melanoma = test system: UACC-62 melanoma
OVCAR-8 ovarian = test system: OVCAR-8 ovarian
OVCAR-3 ovarian = test system: OVCAR-3 ovarian
HOP-18 NSCLC = test system: HOP-18 NSCLC
NCI-H23 lung = test system: NCI-H23 lung
PC-3 prostate = test system: PC-3 prostate
MALME-3M melanoma = test system: MALME-3M melanoma
HCC-2998 colon = test system: HCC-2998 colon
COLO 205 colon = test system: COLO 205 colon
M14 melanoma = test system: M14 melanoma
SK-MEL-5 melanoma = test system: SK-MEL-5 melanoma
NCI/ADR-RES ovarian = test system: NCI/ADR-RES ovarian
UACC-257 melanoma = test system: UACC-257 melanoma
A498 renal = test system: A498 renal
TK-10 renal = test system: TK-10 renal
UO-31 renal = test system: UO-31 renal
SF-268 CNS = test system: SF-268 CNS
OVCAR-4 ovarian = test system: OVCAR-4 ovarian
SNB-78 CNS = test system: SNB-78 CNS
M19-MEL melanoma = test system: M19-MEL melanoma
K-562 leukemia = test system: K-562 leukemia
CAKI-1 renal = test system: CAKI-1 renal
NCI-H522 lung = test system: NCI-H522 lung
SK-MEL-2 melanoma = test system: SK-MEL-2 melanoma
P388 leukemia = test system: P388 leukemia
HT29 colon = test system: HT29 colon
LOX IMVI melanoma = test system: LOX IMVI melanoma
CCRF-CEM leukemia = test system: CCRF-CEM leukemia
MDA-MB-435 = test system: MDA-MB-435
RXF 393 renal = test system: RXF 393 renal
XF 498 CNS = test system: XF 498 CNS
DU-145 prostate = test system: DU-145 prostate
SN12C renal = test system: SN12C renal
BT-549 breast = test system: BT-549 breast
NCI-H226 lung = test system: NCI-H226 lung
MCF7 breast = test system: MCF7 breast
LXFL 529 NSCLC = test system: LXFL 529 NSCLC
KM20L2 colon = test system: KM20L2 colon
HOP-92 NSCLC = test system: HOP-92 NSCLC
DMS 114 small cell lung = test system: DMS 114 small cell lung
SK-OV-3 ovarian = test system: SK-OV-3 ovarian
HCT-116 colon = test system: HCT-116 colon
DMS 273 small cell lung = test system: DMS 273 small cell lung
KM12 colon = test system: KM12 colon
A549 NSCLC = test system: A549 NSCLC
ACHN renal = test system: ACHN renal
MDA-N = test system: MDA-N
SN12K1 renal = test system: SN12K1 renal

COc1ccc2nc3ccccc3c(NCCN(C)CCCl)c2c1
TGI (SNB-75 CNS): 4.07 µM
TGI (MDA-MB-231 breast): 2.98 µM
TGI (HL-60(TB) leukemia): 1.73 µM
TGI (P388/ADR leukemia): 8.73 µM
TGI (SNB-19 CNS): 7.44 µM
TGI (SW-620 colon): 1.91 µM
TGI (HOP-62 NSCLC): 3.7 µM
TGI (MOLT-4 leukemia): 0.497 µM
TGI (DLD-1 colon): 3.45 µM
TGI (IGROV1 ovarian): 2.58 µM
TGI (NCI-H460 lung): 2.49 µM
TGI (EKVX NSCLC): 4.37 µM
TGI (HCT-15 colon): 7.56 µM
TGI (OVCAR-5 ovarian): 3.84 µM
TGI (SF-295 CNS): 4.17 µM
TGI (SF-539 CNS): 1.85 µM
TGI (SK-MEL-28 melanoma): 3.97 µM
TGI (U251 CNS): 3.16 µM
TGI (SR leukemia): 2.31 µM
TGI (786-0 renal): 1.89 µM
TGI (RPMI-8226 leukemia): 1.53 µM
TGI (UACC-62 melanoma): 2.03 µM
TGI (OVCAR-8 ovarian): 2.76 µM
TGI (OVCAR-3 ovarian): 3.29 µM
TGI (HOP-18 NSCLC): 6.29 µM
TGI (NCI-H23 lung): 1.88 µM
TGI (PC-3 prostate): 2.24 µM
TGI (MALME-3M melanoma): 1.5 µM
TGI (HCC-2998 colon): 2.15 µM
TGI (COLO 205 colon): 1.84 µM
TGI (M14 melanoma): 2.29 µM
TGI (SK-MEL-5 melanoma): 2.03 µM
TGI (NCI/ADR-RES ovarian): 3.79 µM
TGI (UACC-257 melanoma): 9.46 µM
TGI (A498 renal): 3.02 µM
TGI (TK-10 renal): 15.7 µM
TGI (UO-31 renal): 3.38 µM
TGI (SF-268 CNS): 3.85 µM
TGI (OVCAR-4 ovarian): 2.8 µM
TGI (SNB-78 CNS): 4.76 µM
TGI (M19-MEL melanoma): 2.48 µM
TGI (K-562 leukemia): 9.24 µM
TGI (CAKI-1 renal): 2.2 µM
TGI (NCI-H522 lung): 1.51 µM
TGI (SK-MEL-2 melanoma): 2.41 µM
TGI (P388 leukemia): 1.51 µM
TGI (HT29 colon): 4.95 µM
TGI (LOX IMVI melanoma): 1.77 µM
TGI (CCRF-CEM leukemia): 3.67 µM
TGI (MDA-MB-435): 2.15 µM
TGI (RXF 393 renal): 1.86 µM
TGI (XF 498 CNS): 2.3 µM
TGI (DU-145 prostate): 4.47 µM
TGI (SN12C renal): 2.86 µM
TGI (BT-549 breast): 3.24 µM
TGI (NCI-H226 lung): 2.26 µM
TGI (MCF7 breast): 4.18 µM
TGI (LXFL 529 NSCLC): 1.85 µM
TGI (KM20L2 colon): 2.88 µM
TGI (HOP-92 NSCLC): 3.85 µM
TGI (DMS 114 small cell lung): 2.31 µM
TGI (SK-OV-3 ovarian): 3.5 µM
TGI (HCT-116 colon): 2.63 µM
TGI (DMS 273 small cell lung): 2.35 µM
TGI (KM12 colon): 4.13 µM
TGI (A549 NSCLC): 4.88 µM
TGI (ACHN renal): 1.91 µM
TGI (MDA-N): 2.4 µM

CN(C)CCNC(=O)c1ccc(Cl)c2ccc(-c3ccccc3)nc12
TGI (SNB-75 CNS): 12.3 µM
TGI (HL-60(TB) leukemia): 7.65 µM
TGI (P388/ADR leukemia): 5.17 µM
TGI (SNB-19 CNS): 17.1 µM
TGI (SW-620 colon): 14.2 µM
TGI (HOP-62 NSCLC): 11 µM
TGI (MOLT-4 leukemia): 5.72 µM
TGI (DLD-1 colon): 12.7 µM
TGI (IGROV1 ovarian): 14.1 µM
TGI (NCI-H460 lung): 8.04 µM
TGI (HCT-15 colon): 14.5 µM
TGI (OVCAR-5 ovarian): 13.3 µM
TGI (SF-295 CNS): 16.5 µM
TGI (SF-539 CNS): 12.8 µM
TGI (SK-MEL-28 melanoma): 14.6 µM
TGI (U251 CNS): 12.7 µM
TGI (RPMI-8226 leukemia): 7.83 µM
TGI (SN12K1 renal): 9.69 µM
TGI (UACC-62 melanoma): 7.83 µM
TGI (OVCAR-8 ovarian): 12.3 µM
TGI (OVCAR-3 ovarian): 19.4 µM
TGI (HOP-18 NSCLC): 13.5 µM
TGI (NCI-H23 lung): 16.6 µM
TGI (MALME-3M melanoma): 10.6 µM
TGI (HCC-2998 colon): 16.6 µM
TGI (COLO 205 colon): 4.85 µM
TGI (SK-MEL-5 melanoma): 4.82 µM
TGI (NCI/ADR-RES ovarian): 12.1 µM
TGI (UACC-257 melanoma): 14.2 µM
TGI (A498 renal): 12.8 µM
TGI (UO-31 renal): 5.21 µM
TGI (SF-268 CNS): 17.5 µM
TGI (OVCAR-4 ovarian): 14 µM
TGI (SNB-78 CNS): 20.5 µM
TGI (M19-MEL melanoma): 13.4 µM
TGI (K-562 leukemia): 6.15 µM
TGI (CAKI-1 renal): 12.9 µM
TGI (NCI-H522 lung): 14.9 µM
TGI (SK-MEL-2 melanoma): 20.1 µM
TGI (HT29 colon): 11.9 µM
TGI (CCRF-CEM leukemia): 10.8 µM
TGI (RXF 393 renal): 19 µM
TGI (XF 498 CNS): 11 µM
TGI (SN12C renal): 15.5 µM
TGI (NCI-H226 lung): 7.3 µM
TGI (MCF7 breast): 16.8 µM
TGI (KM20L2 colon): 12.9 µM
TGI (HOP-92 NSCLC): 7.52 µM
TGI (SK-OV-3 ovarian): 17.4 µM
TGI (HCT-116 colon): 11.3 µM
TGI (DMS 273 small cell lung): 10.9 µM
TGI (KM12 colon): 24.2 µM
TGI (A549 NSCLC): 13 µM
